29 molecules from patent US20250295652A1, “Inhibitors of Molluscum Contagiosum Infection and Methods Using the Same” (priority 2021, published 2025) can be followed below.

SMILES strings stand for the structures.

One may read the EC50 as the concentration that produces a half-maximal response.

The test system of the first assay is VV. The assay can be described thus: microbe, parasite or virus in culture. The note with it: Orthopoxvirus vaccinia, BSC-1, read-out: VV EC50. The format is cell-based, vaccinia virus.
Consider `CCC(C(=O)Nc1scc(C)c1C(=O)OC)c1ccccc1` (centres unmarked) [Compound 32, 4-Methyl-2-(2-phenyl-butyrylamino)-thiophene-3-carboxylic acid methyl ester], for which the EC50 stood at 32.9 µM.
Turning to `CCC(C(=O)Nc1snc(C)c1C(=O)OC)c1ccccc1` (centres unmarked) [Compound 89, 3-Methyl-5-(2-phenyl-butyrylamino)-isothiazole-4-carboxylic acid methyl ester], the EC50 worked out at 29.3 µM.
For the molecule `COC(=O)c1c(NC(=O)C(Cc2ccccc2)N2C(=O)c3ccccc3C2=O)sc(C(N)=O)c1C` (centres unmarked) [Compound 33, 5-Carbamoyl-2-[2-(1,3-dioxo-1,3-dihydro-isoindol-2-yl)-3-phenyl-propionylamino]-4-methyl-thiophene-3-carboxylic acid methyl ester], the EC50 was 43.6 µM.
In the case of `Cc1c(C(N)=O)sc(NC(=O)C2CCc3cc(Cl)ccc32)c1C#N` (centres unmarked) [Compound 50, 5-[(5-Chloro-indane-1-carbonyl)-amino]-4-cyano-3-methyl-thiophene-2-carboxylic acid amide], the EC50 came out at 33 µM.
`Cc1c(C(N)=O)sc(N(C(=O)C2CCCc3ccccc32)C(=O)C2CCCc3ccccc32)c1C#N` (centres unmarked) [Compound 47, 5-[Bis-(1,2,3,4-tetrahydro-naphthalene-1-carbonyl)-amino]-4-cyano-3-methyl-thiophene-2-carboxylic acid amide]: the EC50 was found to be 20 µM.
Consider `CCOC(=O)c1c(NC(=O)C(CC)c2ccccc2)sc(C)c1CC` (centres unmarked) [Compound 2, ethyl 4-ethyl-5-methyl-2-(2-phenylbutanamido)thiophene-3-carboxylate], for which the EC50 is 36.6 µM.
As for `CCOC(=O)c1sc(NC(=O)C(CC)c2ccccc2)cc1C` (centres unmarked) [Compound 72, ethyl 3-methyl-5-(2-phenylbutanamido)thiophene-2-carboxylate], the EC50 came out at 19.1 µM.
Turning to `CCOC(=O)c1sc(NC(=O)C(CC)c2ccccc2)c(C(N)=O)c1C` (centres unmarked) [Compound 19, ethyl 4-carbamoyl-3-methyl-5-(2-phenylbutanamido)thiophene-2-carboxylate], the EC50 turned out to be 31.3 µM.
Still for that read-out and setting: with `Cc1nsc(NC(=O)C2CCc3ccccc32)c1C#N` (centres unmarked) [Compound 87, Indan-1-carboxylic acid (4-cyano-3-methyl-isothiazol-5-yl)-amide] the figure was 17 µM.
With `CCC(C(=O)Nc1cc(C)ns1)c1ccccc1` (centres unmarked) [Compound 78, N-(3-methylisothiazol-5-yl)-2-phenylbutanamide], the concentration for a half-maximal effect (EC50) worked out at 41.7 µM.
In the case of `CCC(C(=O)Nc1cc(C)cs1)c1ccccc1` (centres unmarked) [Compound 34, N-(4-methyl-thiophen-2-yl)-2-phenyl-butyramide], the EC50 stood at 46.7 µM.
Consider `COc1ccc(CN(Cc2ccc(OC)cc2)C(Cc2ccccc2)C(=O)Nc2sc(C(N)=O)c(C)c2C#N)cc1` (centres unmarked) [Compound 57, 5-(2-{Bis[(4-methoxyphenyl)methyl]amino}-3-phenylpropanamido)-4-cyano-3-methylthiophene-2-carboxamide], for which the EC50 was determined as 20.8 µM.
Turning to `CCC(C(=O)Nc1sc(C)c(C)c1C(=O)OC)c1ccccc1` (centres unmarked) [Compound 26, methyl 4,5-dimethyl-2-(2-phenylbutanamido)thiophene-3-carboxylate], the EC50 was determined as 45.3 µM.
Turning to `CCOC(=O)c1c(NC(=O)C2CCCCC2)sc(C(N)=O)c1C` [Compound 4, ethyl 5-carbamoyl-2-(cyclohexanecarboxamido)-4-methylthiophene-3-carboxylate], the EC50 worked out at 48.9 µM.
As to `COc1ccc(N2CCN(C(=O)Nc3snnc3C(=O)NCc3ccc(Cl)cc3)CC2)cc1` [Compound 86, N-(4-chlorobenzyl)-5-(4-(4-methoxyphenyl)piperazine-1-carboxamido)-1,2,3-thiadiazole-4-carboxamide], the EC50 came to 32.6 µM.
On to `CCC(C(=O)Nc1cc(C)c(C(=O)OC)s1)c1ccccc1` (centres unmarked) [Compound 22, 3-Methyl-5-(2-phenyl-butyrylamino)-thiophene-2-carboxylic acid methyl ester], for which the EC50 turned out to be 26.8 µM.

For the next assay, the system named is mD4-VV surrogate virus. Description: microbe, parasite or virus in culture. Type of assay: cell-based, mD4/vaccinia hybrid virus.
Conditions: not given
As to `O=C(NCc1ccccc1)c1nnsc1NC(=O)N1CCN(c2ccccc2)CC1` [Compound 123, 4-Phenyl-piperazine-1-carboxylic acid (4-benzylcarbamoyl-[1,2,3]thiadiazol-5-yl)-amide], the “% @ 25 uM (mD4)” value worked out at 44% @ 25 uM.
Regarding `CCC(C(=O)Nc1sc(C(N)=O)c(C)c1C(=O)OC)c1cccc(OC)c1` (centres unmarked) [Compound 96, Methyl 2-(2-(3-methoxyphenyl)butanamido)-5-carbamoyl-4-methylthiophene-3-carboxylate], the “% @ 25 uM (mD4)” value stood at 56% @ 25 uM.
For the molecule `CCOC(=O)c1ncsc1NC(=O)C(CC)c1ccccc1` (centres unmarked) [Compound 165, Ethyl 5-(2-phenylbutanamido)thiazole-4-carboxylate], the “% @ 25 uM (mD4)” value came to 30.6% @ 25 uM.
Consider `COC(=O)c1c(NC(=O)N2CCN(c3ccccn3)CC2)sc(C(N)=O)c1C` [Compound 116, Methyl 2-(4-(pyridin-2-yl)piperazine-1-carboxamido)-5-carbamoyl-4-methylthiophene-3-carboxylate], for which the “% @ 25 uM (mD4)” value is on record as 30% @ 25 uM.
On to `CCOC(=O)c1nnsc1NC(=O)C(CC)c1ccccc1` (centres unmarked) [Compound 106, 5-(2-Phenyl-butyrylamino)-[1,2,3]thiadiazole-4-carboxylic acid ethyl ester], for which the “% @ 25 uM (mD4)” value was 40% @ 25 uM.

The assay is the same for the next values; noted with them: Hybrid virus, BSC-1, read-out: mD4 EC50.
With `O=C(Nc1snnc1C(=O)NCc1ccc(Cl)cc1)Oc1ccccc1` [Compound 132, [4-(4-Chloro-benzylcarbamoyl)-[1,2,3]thiadiazol-5-yl]-carbamic acid phenyl ester], the EC50 turned out to be 16.4 µM.
On the same count and under the same terms, with `CCC(C(=O)Nc1snnc1-c1ccccc1F)c1ccccc1` (centres unmarked) [Compound 153, N-[4-(2-Fluoro-phenyl)-[1,2,3]thiadiazol-5-yl]-2-phenyl-butyramide] the figure was 10.2 µM.
For the molecule `CCC(C(=O)Nc1sc(C(N)=O)c(C)c1C(=O)OC)c1ccc(C)cc1` (centres unmarked) [Compound 188, Methyl 5-carbamoyl-4-methyl-2-(2-(p-tolyl)butanamido)thiophene-3-carboxylate], the EC50 amounted to 64.1 µM.
With `CCC(C(=O)Nc1sc(C(=O)N2CCNCC2)c(C)c1C(=O)OC)c1ccc(F)cc1` (centres unmarked) [Compound 201, Methyl 2-[2-(4-fluorophenyl)butanamido]-4-methyl-5-(piperazine-1-carbonyl)thiophene-3-carboxylate], the EC50 is greater than 25 µM.
Same read-out and setting: with `CCC(C(=O)Nc1sc(C(=O)OC(C)(C)C)c(C)c1C(=O)OC)c1ccc2c(c1)OCO2` (centres unmarked) [Compound 192, 2-tert-butyl 4-methyl 5-(2-(benzo[d][1,3]dioxol-5-yl)butanamido)-3-methylthiophene-2,4-dicarboxylate] the figure was greater than 50 µM; with `CCC(C(=O)Nc1sc(C(N)=O)c(C)c1C(=O)OC)c1ccccc1F` (centres unmarked) [Compound 189, Methyl 5-carbamoyl-2-(2-(2-fluorophenyl)butanamido)-4-methylthiophene-3-carboxylate], 15.2 µM; with `CCC(C(=O)Nc1sc(C(=O)NCCCNC(=O)OC(C)(C)C)c(C)c1C(=O)OC)c1ccc(F)cc1` (centres unmarked) [Compound 202, Methyl 5-((3-((tert-butoxycarbonyl)amino)propyl)carbamoyl)-2-(2-(4-fluorophenyl)butanamido)-4-methylthiophene-3-carboxylate], greater than 50 µM.
The same measure, in the same setting: with `CCC(C(=O)Nc1snnc1C(=O)NCc1ccccc1)c1ccccc1` (centres unmarked) [Compound 135, 5-(2-Phenyl-butyrylamino)-[1,2,3]thiadiazole-4-carboxylic acid benzylamide] the figure was 18.5 µM.
